Values after ≈ are worked out from the molar mass of the structure shown. Where a name gives a salt, the structure may show the parent alone.
What was measured:
[1] = Intrinsic clearance in human liver microsomes; format: in vitro ADME; conditions: human, pooled human liver microsomes (50 donors), pH 7.4, human liver microsome assay; 1 μM test compound, 0.806 mg/mL protein, NADPH, pH 7.4, 37° C.; mean +/− STD Dev; read-out: CLint (μL/min/mg) (+/− STD Dev)
Protocol: The incubations were conducted at 37° C. […] (Sorvall RC 3C Plus, Thermo Scientific, Waltham, Mass.).

[2] = Intrinsic clearance in human hepatocytes (relay method); format: in vitro ADME; conditions: human, cryopreserved human hepatocytes (suspension, relay method), 20 h total incubation, mean +/− standard deviation, read-out: CLint (+/− Std Dev), relay hepatocyte assay
Protocol: For intrinsic clearance (CLint) measurement, hepatocyte relay method was used (Di, L., et al. 2012, Drug Metab. Dispos., 40, 1860-1865 and Di, L., et al. 2013, Drug Metab. Dispos., 41, 2018-2023). Cryopreserved human hepatocytes (Lot DCM from BioreclamationlVT) were used. Upon thawing, the hepatocytes were resuspended in Williams' medium E (custom formula number 91-5233EA; Gibco, Grand Island, N.Y.) supplemented with Hepes and Na2CO3. […] The plates were incubated at 37° C. with 95% air/5% CO2, 75% relative humidity for 4 h at 150 rpm in a humidified incubator. At time 0 and 4 h, 25 μL of hepatocyte suspension was removed from the incubation and added to 50 μL of ice-cold acetonitrile (containing metoprolol, indomethacin, and terfenadine as internal standards) to quench the reaction. The samples were centrifuged (Eppendorf, Hauppauge, N.Y.) at 3000 rpm (1439×g) for 10 min at room temperature, and 50 μL of supernatant was transferred to a clean plate, dried completely, and reconstituted before liquid chromatography/tandem mass spectrometry (LC-MS/MS) analysis. The remaining hepatocyte suspensions in the incubation plate were centrifuged (3000 rpm, 1439×g, 10 min, room temperature). The supernatant of 300 μL was transferred to a clean 24-well plate and stored at −80° C. until the next relay experiment. For the second relay experiment, the supernatant plates were warmed first to room temperature for 30 minutes, then to 37° C. for 30 min, and hepatocytes were added to the samples to give a final cell density of 0.5 million cells/mL. The plates were incubated at 37° C. for 4 h, sampled, and processed as described above. Five relays were performed to give a total incubation time of 20 h, with sampling points at (0, 4, 8, 12, 16 and 20 h). The concentrations of test compound determined at each time point by the LC-MS/MS analysis were used to calculate the intrinsic clearance.

[3] = High throughput determination of intrinsic clearance in human hepatocytes; format: in vitro ADME; conditions: human, pooled cryopreserved human hepatocytes (10 donors), high throughput human hepatocyte assay; 0.5 million cells/mL, 1 μM test compound, 37° C.; mean +/− Std Dev; read-out: CLint (μL/min/10^6 cells) (+/− Std Dev)
Protocol: The incubation was carried out at 37° C. […] The samples were centrifuged (Eppendorf, Hauppauge, N.Y.) at 3000 rpm for 5 min at 4° C.

[4] = Determination of pKa (capillary electrophoresis, Analiza, Inc.); format: physicochemical; conditions: mean, read-out: Basic pKa (most basic pKa)
[5] = molecular target: human DGAT2 (hDGAT2) (Homo sapiens (Human), UniProt Q96PD7); experiment: In vitro DGAT2 assay, determination of IC50 values for DGAT2 inhibitors; format: biochemical; conditions: hDGAT2 membrane fraction; geometric mean
Protocol: Recombinant baculovirus for the FLAG-tagged hDGAT2 was generated in SF9 insect cells using Bac-to-Bac baculovirus expression system (Invitrogen) according to the manufacturer's protocol. For the expression of hDGAT2, SF9 cells (20 L) grown in Sf900II media were infected with hDGAT2 baculovirus at a multiplicity of infection of 1 in a Wave Bioreactor System 20/50P wave bag (GE Healthcare). After 40 hours of infection, the cells were then harvested by centrifugation at 5,000×g. The cell pellets were washed by resuspending in phosphate buffered saline (PBS) and collected by centrifugation at 5,000×g. The cell paste was flash frozen in liquid N2 and stored at −80° C. until needed. All operations below were at 4° C. unless otherwise noted. The cells were resuspended in lysis buffer (50 mM Tris-HCl, pH 8.0, 250 mM sucrose) including 1 mM ethylenediaminetetraacetic acid (EDTA) and the complete protease inhibitor cocktail (Roche Diagnostics) at a ratio of 3 mL buffer per 1 g cell paste. The cells were lysed by dounce homogenizer. The cell debris was removed by centrifugation at 1,000×g for 20 min, and the supernatant was centrifuged at 100,000×g for 1 hour. The resulting pellet was rinsed three times by filling ultracentrifuge tubes to the top with ice cold PBS before decanting. The washed pellet was resuspended with gentle stirring for 1 hour in lysis buffer containing 8 mM 3-[(3-cholamidopropyl)dimethylammonio]-1-propanesulfonate (CHAPS) at a ratio of 1 mL buffer per 1 g of original cell paste and centrifuged again at 100,000×g for 1 hour. The resulting supernatant was aliquotted, flash frozen in liquid N2, and stored at −80° C. until use.
To 1 μL of compounds dissolved in 100% DMSO and spotted at the bottom of each well, 5 μL of 0.04% bovine serum albumin (BSA) (fatty acid free, Sigma Aldrich) was added and the mixture was incubated at room temperature for 15 minutes. hDGAT2 membrane fractions were diluted in 100 mM Hepes-NaOH, pH 7.4, 20 mM MgCl2 containing 200 nM methyl arachidonyl fluorophosphonate (Cayman Chemical; dried from ethyl acetate stock solution under argon gas and dissolved in DMSO as 5 mM stock). 10 μL of this enzyme working solution was added to the plates and incubation continued for 2 hours at room temperature. […] Plates were centrifuged at 2,000×g for 1 minute in an Allegra 6R Centrifuge (Beckman Coulter) and then were sealed again with fresh covers before reading in a 1450 Microbeta Wallac Trilux Scintillation Counter (Perkin Elmer). DGAT2 activity was measured by quantifying the generated product [^14C]tridecanoylglycerol in the upper organic phase. […]

[6] = Thermodynamic solubility in various biorelevant media; format: physicochemical; conditions: crystalline solid; for solubility at 25 h: 25 °C, thermodynamic from solid
Protocol: The solubility of active pharmaceutical ingredients is an important characteristic in determining biological performance and ease of formulation during drug development, with high solubility being preferred (Klein, S. 2010, The AAPS Journal, 12, 397-406; Di, L., et al 2012, Drug Disc. Today, 17. 486-495). A test sample of crystalline solid (˜7 mg) was combined in a vial with 1 mL of the relevant buffer solution and the mixture vortexed to combine. If the solid dissolved completely, additional solid was added with vortexing until a saturated solution was obtained. The saturated solution/solid mixture was capped and subjected to temperature cycling as follows: 1 min at 25° C., 8 h at 40° C., 5 h at 15° C. and 12 h at 25° C. The mixture was filtered in a centrifugal filtration device (0.22 μm PVDF filter, MilliporeSigma, Milwaukee, Wis.) at 13,000 rpm and the concentration of the test compound in the filtrate was determined by HPLC/UPLC with reference to a three point standard curve. Phosphate buffered saline (PBS, pH 6.8, 50 mM phosphate buffer, 250 mM NaCl). Simulated gastric fluid (SGN pH 1.2, USP recipe). Fasted state simulated intestinal fluid (FaSSIF, 3 mM sodium taurocholate, 0.75 mM phospholipid from soybean lecithin, 50 mM phosphate buffer, ionic strength adjusted to 250 mM with NaCl, pH 6.8) and fed state simulated intestinal fluid (FeSSIF, 15 mM sodium taurocholate, 3.75 mM phospholipid from soybean lecithin, 144 mM acetic acid, 50 mM phosphate buffer, ionic strength adjusted to 250 mM with NaCl, pH 6.8).

Sequence of human DGAT2 (hDGAT2) (Q96PD7 whole entry): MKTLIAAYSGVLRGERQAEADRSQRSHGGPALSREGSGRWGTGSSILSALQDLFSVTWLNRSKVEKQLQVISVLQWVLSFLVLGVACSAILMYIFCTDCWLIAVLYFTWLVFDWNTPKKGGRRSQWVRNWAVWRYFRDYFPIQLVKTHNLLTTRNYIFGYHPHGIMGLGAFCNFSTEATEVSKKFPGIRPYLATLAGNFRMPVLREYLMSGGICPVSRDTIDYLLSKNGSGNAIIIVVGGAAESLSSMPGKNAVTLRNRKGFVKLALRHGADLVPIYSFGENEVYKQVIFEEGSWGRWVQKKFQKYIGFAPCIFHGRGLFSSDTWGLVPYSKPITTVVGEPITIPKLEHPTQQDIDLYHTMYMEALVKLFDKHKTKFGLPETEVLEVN

SMILES | microsomal CLint at 1 μM [1] [µL/min/mg] | hepatocyte CLint at 1 μM [2] [µL/min/1e6 cells] | hepatocyte CLint at 1 μM [3] [µL/min/1e6 cells] | pKa [4] | IC50 [5] [nM] | further results
CCOc1cccnc1Oc1cncc(-c2ncc(C(=O)NC3(CO)CCOC3)cn2)c1 (single isomer, unassigned) [WO2018033832 Ex. 6a] | 13 | 3.2 | < 3.8 | 2.3 | – | –
CCOc1cccnc1Oc1cncc(-c2ncc(C(=O)N[C@@H]3CCOC3)cn2)c1 [WO2018033832 Ex. 2] | 17 | 4.9 | 4.7 | 2.5 | – | –
CCOc1cccnc1Oc1cncc(-c2ncc(C(=O)N[C@H]3CCC(C(F)(F)F)NC3)cn2)c1 (mixture of isomers) [Example 8, rac-2-{5-[(3-ethoxypyridin-2-yl)oxy]pyridin-3-yl}-N-[(3R,6S)-6-(trifluoromethyl)piperidin-3-yl]pyrimidine-5-carboxamide or rac-2-{5-[(3-ethoxypyridin-2-yl)oxy]pyridin-3-yl}-N-[(3R,6R)-6-(trifluoromethyl)piperidin-3-yl]pyrimidine-5-carboxamide] | < 14 | – | 12 | – | – | –
CCOc1cccnc1Oc1cncc(-c2ncc(C(=O)N[C@H]3CCOC3)cn2)c1 [WO2018033832 Ex. 1] | 11 | 3.9 | < 3.8 | 2.4 | – | –
CCOc1cc(F)cnc1Oc1cncc(-c2ncc(C(=O)N[C@H]3CCOC3)cn2)c1 [WO2018033832 Ex. 8] | < 9.6 | – | 9.3 | – | 3.3 | –
CCOc1cccnc1Oc1cncc(-c2ncc(C(=O)N[C@H]3CCOC3)cn2)c1 [WO2018033832 Ex. 1, Form 1] | – | – | – | – | – | Solubility ([6]; SGN pH 1.2 (simulated gastric fluid)): 0.078 mg/mL (≈ 191 µM); solubility at 25 h ([6]; fasted state simulated intestinal fluid (FaSSIF), pH 6.8, fassif, FaSSIF pH 6.8): 69 µg/mL (≈ 169 µM); solubility at 25 h ([6]; phosphate buffered saline, pH 6.8, aqueous buffer, PBS, pH 6.8): 43 µg/mL (≈ 106 µM)
CCOc1cccnc1Oc1cncc(-c2ncc(C(=O)N[C@H]3CCOC3)cn2)c1 [WO2018033832 Ex. 1, Form 2] | – | – | – | – | – | Solubility ([6]; FaSSIF pH 6.8): 0.093 mg/mL (≈ 228 µM); Solubility ([6]; PBS, pH 6.8): 0.060 mg/mL (≈ 147 µM)
CCOc1cc(F)cnc1Oc1cncc(-c2ncc(C(=O)N[C@@H]3CNCC[C@@H]3F)cn2)c1 [Example 1, 2-{5-[(3-Ethoxy-5-fluoropyridin-2-yl)oxy]pyridin-3-yl}-N-[(3R,4S)-4-fluoropiperidin-3-yl]pyrimidine-5-carboxamide, bis(trifluoroacetate) Salt] | < 7 | – | < 2.7 | 7.7 | – | –
CCOc1cccnc1Oc1cncc(-c2ncc(C(=O)NC3CCS(=O)(=O)C3)cn2)c1 (stereo not shown) [WO2018033832 Ex. 3.3] | < 8 | – | 5.1 | – | 200 | –
CCOc1cccnc1Oc1cncc(-c2ncc(C(=O)NC3(C)CCS(=O)(=O)C3)cn2)c1 (stereo not shown) [WO2018033832 Ex. 3.1] | 30 | – | 9.3 | – | 13 | –

Reference: US11471458B2, “Diacylglycerol acyl transferase 2 inhibitor” (Pfizer Inc., priority 2019, dated 2022)
